Data taken from US5994349A, “3-carboalkoxy-2, 3-dihydro-1H-phenothiazin-4[10H]-one derivatives” (priority 1997, dated 1999).
Like-named read-outs stand apart in the source and are kept apart here.

Experiments:
[1] = system: neurotoxicity (rotorod); assay: rotorod test for neurological toxicity (Tox), Phase I, mice ip; assay type: in vivo, male Carworth Farms No. 1 (CF1) mice
Description: (§1) Initial evaluations for anticonvulsant activity include phases I, VIA and VIB test procedures. These tests are performed intraperitoneally in male Carworth Farms No. 1 (CF1) mice, weighing 18-25 g (Phase I) or orally in male Sprague-Dawley rats, weighing 100-150 g (Phases VIA and VIB). The evaluation is based on three tests: maximal electroshock (MES), subcutaneous (scMet), and the rotorod test for neurological toxicity (Tox). (a) Anticonvulsant Screening Project, Antiepileptic Drug Development Program, National Institutes of Health, DHEW Publ (NIH)(U.S.) 1978, NIH 78-1093. (b) Porter, R. J.; Cereghino, J. J.; Gladding, G. D.; Hessie, B. J.; Kupferberg, H. J.; Scoville, B.; White, B. G. Antiepileptic drug development program. Cleveland Clin. Q. 1984, 51, 293-305. (c) Krall, R. L.; Penry, J. K.; White, B. G.; Kupferberg, H. J.; Swinyard, E. A. Antiepileptic drug development: II. Anticonvulsant drug screening. Epilepsia 1978, 19, 400-428. In the MES test, maximal electroshock seizures are elicited with a 60- cycle alternating current of 50 mA intensity (5-7 times that necessary to elicit minimal electroshock seizures) delivered via corneal electrodes for 0.2 seconds. A drop of 0.9% saline is placed on the eye prior to application of the electrodes in order to […]. Abolition of the hind limb tonic extension component of the seizure is defined as protection and results are expressed as the number of animals protected/the number of animals tested.
The rotorod test is used to evaluate neurotoxicity. The animal is placed on a 1 inch diameter knurled plastic rod rotating at 6 rpm. Normal mice can remain on a rod rotating at this speed indefinitely. […]

[2] = system: pentylenetetrazol seizures; assay: subcutaneous pentylenetetrazol (scMet) test, Phase I, mice ip; assay type: in vivo, male Carworth Farms No. 1 (CF1) mice; details: for responders at 30 mg/kg / responders at 100 mg/kg / responders at 300 mg/kg / responders at 10 mg/kg: Mus musculus
Description: as §1
In the sc MET test, eighty-five mg/kg of pentylenetetrazol, which induces seizures in more than 95% of mice, is administered as a 0.5% solution subcutaneously in the posterior midline. The animal is observed for 30 minutes. Failure to observe even a threshold seizure (a single episode of clonic spasms of at least 5 seconds duration) is defined as protection and the results are expressed as the number of animals protected/ the number of animals tested. […]

[3] = system: neurotoxicity (rotorod); assay: rotorod toxicity, oral rat (Phase VIA/VIB); assay type: in vivo, male Sprague-Dawley rats; details: rat oral, 30 mg/kg
Description: as §1
The rotorod test is used to evaluate neurotoxicity. The animal is placed on a 1 inch diameter knurled plastic rod rotating at 6 rpm. Normal mice can remain on a rod rotating at this speed indefinitely.
(§2) To differentiate the results between different rodent species, 4b (X=H), as well as 4a (R=H), 4e (R=Cl), 4f (R=Cl) and 4i (R=CH3) are subsequently evaluated for oral (po) activity in the rat (Phase VIA or VIB).

[4] = system: maximal electroshock seizures; assay: maximal electroshock (MES) test, oral rat (Phase VIA/VIB); assay type: in vivo, male Sprague-Dawley rats; details: 30 mg/kg
Description: as §1, §2

[5] = system: maximal electroshock seizures; assay: maximal electroshock (MES) test, Phase I, mice ip; assay type: in vivo, male Carworth Farms No. 1 (CF1) mice; details: Mus musculus
Description: as §1
In phase I, compounds are suspended in 0.5% aqueous methylcellulose and are administered intraperitoneally at three dosage levels (30, 100, and 300 mg/kg) with anticonvulsant activity and motor impairment noted 30 min and 4 h (and in some cases 2 h and 6 h) after administration.

[6] = 0.5 h, mice ip, 30 min, read-out: scMet 30 min
[7] = 0.5 h, mice ip, 30 min, read-out: scMet 30 min (converted)
[8] = mice ip, 4 h, read-out: scMet 4 h
[9] = mice ip, 4 h, read-out: scMet 4 h (converted)
[10] = 4 h, read-out: MES 4 h (converted)
[11] = 0.5 h, 30 min, read-out: MES 30 min (converted)

SMILES	Tox 30 min ([1]; 30 mg/kg)	Tox 4 h ([1]; 30 mg/kg)	Tox 30 min ([1]; 100 mg/kg)	Tox 4 h ([1]; 100 mg/kg)	Tox 30 min ([1]; 300 mg/kg)	Tox 4 h ([1]; 300 mg/kg)	responders at 30 mg/kg [2, 6] [%]	responders at 100 mg/kg [2, 6] [%]	responders at 30 mg/kg [2, 8] [%]	responders at 100 mg/kg [2, 8] [%]	Tox ([3]; 0.25 h)	Tox ([3]; 0.50 h)	Tox ([3]; 1.00 h)	responders at 30 mg/kg ([4]; 0.25 h) [%]	responders at 30 mg/kg ([4]; 1.00 h) [%]	responders at 30 mg/kg ([4]; 0.5 h, 0.50 h) [%]	responders at 30 mg/kg ([5]; 4 h, read-out: MES 4 h) [%]	responders at 100 mg/kg [5, 10] [%]	responders at 30 mg/kg [5, 11] [%]	responders at 100 mg/kg [5, 11] [%]	also measured
COC(=O)[C@@H]1C(=O)C2=C(C[C@H]1C)Nc1ccc(Cl)cc1S2 (relative stereo) [Compound 4e, 7-Chloro-3-carbomethoxy-2-methyl-2,3-dihydro-1H-phenothiazin-4[10H] -one]	0/4	0/2	0/8	0/4	0/4	0/2	0	0	0	0	0/4	0/4	0/4	0	75	0	0	66.7	0	0	responders at 300 mg/kg [2, 7]: 0%; responders at 300 mg/kg [2, 9]: 0%; Tox ([3]; 2.00 h): 0/4; Tox ([3]; 4.00 h): 0/4; responders at 30 mg/kg ([4]; 2.00 h): 75%; responders at 30 mg/kg ([4]; 4.00 h): 50%; responders at 300 mg/kg [5, 10]: 100%; responders at 300 mg/kg [5, 11]: 0%
CCOC(=O)[C@@H]1C(=O)C2=C(C[C@H]1C)Nc1ccc(Cl)cc1S2 (relative stereo) [Compound 4f, 7-Chloro-3-carbethoxy-2-methyl-2,3-dihydro-1H-phenothiazin-4[10H] -one]	0/4	0/2	0/8	0/4	0/4	0/2	0	0	0	0	0/4	0/4	0/4	0	75	25	0	33.3	0	66.7	responders at 300 mg/kg [2, 7]: 0%; responders at 300 mg/kg [2, 9]: 40%; Tox ([3]; 2.00 h): 0/4; Tox ([3]; 4.00 h): 0/4; responders at 30 mg/kg ([4]; 2.00 h): 75%; responders at 30 mg/kg ([4]; 4.00 h): 75%; responders at 300 mg/kg [5, 10]: 100%; responders at 300 mg/kg [5, 11]: 100%
COC(=O)[C@@H]1C(=O)C2=C(C[C@H]1C)Nc1ccc(Br)cc1S2 (relative stereo) [Compound 4j, 7-Bromo-3-carbomethoxy-2-methyl-2,3-dihydro-1H-phenothiazin-4[10H]-one]	0/8	0/4	0/4	0/2			0	0	0	0	0/4	0/4	0/2	50	50	75	0	0	33.3	100	Tox 30 min ([1]; 10 mg/kg): 0/4; Tox 4 h ([1]; 10 mg/kg): 0/2; responders at 10 mg/kg ([2]; 0.5 h, mice ip, 10 mg/kg, 30 min, read-out: scMet 30 min): 0%; responders at 10 mg/kg ([2]; mice ip, 10 mg/kg, 4 h, read-out: scMet 4 h): 0%; observation in scMet test (footnote g) ([2]; mice ip, 10 and 30 mg/kg, 30 min): Continuous seizure activity; observation in scMet test (footnote h) ([2]; mouse, in vivo, ip, 10 mg/kg): Death following continuous seizure; responders at 10 mg/kg ([5]; 4 h, read-out: MES 4 h): 0%; responders at 10 mg/kg ([5]; 0.5 h, 30 min, read-out: MES 30 min): 0%
COC(=O)[C@@H]1C(=O)C2=C(C[C@H]1C)Nc1ccccc1S2 (relative stereo) [Compound 4a, 3-Carbomethoxy-2-methyl-2,3-dihydro-1H-phenothiazin-4[10H] -one]	0/4	0/2	0/8	0/4	1/4	0/2	0	0	0	0	0/4	0/4	0/4	0	50	25	0	33.3	0	100	responders at 300 mg/kg [2, 7]: 0%; responders at 300 mg/kg [2, 9]: 0%; Tox ([3]; 2.00 h): 0/4; Tox ([3]; 4.00 h): 0/4; responders at 30 mg/kg ([4]; 2.00 h): 25%; responders at 30 mg/kg ([4]; 4.00 h): 50%; responders at 300 mg/kg [5, 10]: 100%; responders at 300 mg/kg [5, 11]: 100%
